Measurements published in PMC2635097 (Molecular pharmacology, 2008).
Values joined by “and” are separate entries in the source; they are usually repeats but may differ in a detail not shown here. Identical values can stand only once. Values belong to the compound of their own block, whether it stands above or below them. Positions of bridges follow the written chain, without caps; N, C: chain ends. No end group written: not given here.

Columns and labels:
hKCa2.1 = hKCa2.1 (Homo sapiens, UniProt Q92952); assay: Whole-cell patch-clamp of KCa2.1 currents; assay type: cell-based
Sequence of hKCa2.1 (Q92952 whole entry): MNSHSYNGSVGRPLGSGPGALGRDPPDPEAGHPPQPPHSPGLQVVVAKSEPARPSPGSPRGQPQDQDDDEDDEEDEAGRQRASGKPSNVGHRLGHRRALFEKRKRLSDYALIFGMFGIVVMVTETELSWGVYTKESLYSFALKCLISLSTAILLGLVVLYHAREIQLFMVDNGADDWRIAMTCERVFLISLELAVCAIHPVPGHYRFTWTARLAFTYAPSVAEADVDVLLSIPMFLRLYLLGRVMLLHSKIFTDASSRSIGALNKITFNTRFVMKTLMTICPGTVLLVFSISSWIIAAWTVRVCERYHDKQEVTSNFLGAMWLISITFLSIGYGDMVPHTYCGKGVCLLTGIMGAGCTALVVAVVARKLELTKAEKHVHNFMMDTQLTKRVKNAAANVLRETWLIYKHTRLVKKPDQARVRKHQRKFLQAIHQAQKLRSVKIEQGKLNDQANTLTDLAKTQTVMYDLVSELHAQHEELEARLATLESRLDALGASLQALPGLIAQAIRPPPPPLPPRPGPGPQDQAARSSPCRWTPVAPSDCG

mKv3.1 = mKv3.1 (Mus musculus, UniProt P15388); assay: Selectivity patch-clamp, Kv3.1 currents; assay type: cell-based
Sequence of mKv3.1 (P15388 whole entry): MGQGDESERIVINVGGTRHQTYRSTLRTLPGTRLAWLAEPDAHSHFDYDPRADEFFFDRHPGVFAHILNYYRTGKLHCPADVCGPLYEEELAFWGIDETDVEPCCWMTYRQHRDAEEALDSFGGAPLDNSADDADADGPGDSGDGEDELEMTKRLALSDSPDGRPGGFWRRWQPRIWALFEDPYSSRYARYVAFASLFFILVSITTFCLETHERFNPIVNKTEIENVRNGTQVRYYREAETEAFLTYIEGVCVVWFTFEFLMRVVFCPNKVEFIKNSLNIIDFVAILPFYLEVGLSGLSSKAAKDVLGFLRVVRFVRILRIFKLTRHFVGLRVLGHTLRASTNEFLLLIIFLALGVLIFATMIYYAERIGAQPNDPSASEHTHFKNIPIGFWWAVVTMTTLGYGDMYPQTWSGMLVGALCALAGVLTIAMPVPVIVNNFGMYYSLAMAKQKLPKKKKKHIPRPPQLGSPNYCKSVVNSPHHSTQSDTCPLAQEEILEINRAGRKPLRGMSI

K2P2.1 (TREK-1) = target: T1, K2P2.1 (TREK-1) (Mus musculus, UniProt P97438); assay: Selectivity patch-clamp, endothelial cell TREK-1 currents; assay type: cell-based
T1 sequence (P97438 1-426): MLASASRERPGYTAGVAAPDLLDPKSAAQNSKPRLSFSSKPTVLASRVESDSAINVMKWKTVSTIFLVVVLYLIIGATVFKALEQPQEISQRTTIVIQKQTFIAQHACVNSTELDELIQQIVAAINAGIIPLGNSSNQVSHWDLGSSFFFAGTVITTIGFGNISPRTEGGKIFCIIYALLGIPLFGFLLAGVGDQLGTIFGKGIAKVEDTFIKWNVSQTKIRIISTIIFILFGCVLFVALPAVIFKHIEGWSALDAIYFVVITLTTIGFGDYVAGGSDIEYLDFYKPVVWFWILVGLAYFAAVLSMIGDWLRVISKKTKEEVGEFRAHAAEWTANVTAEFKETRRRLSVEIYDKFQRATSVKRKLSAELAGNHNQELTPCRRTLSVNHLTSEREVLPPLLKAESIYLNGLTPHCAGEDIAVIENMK

rKCa2.2 = rKCa2.2 (Rattus norvegicus, UniProt P70604); assay: Whole-cell patch-clamp of KCa2.2 currents; assay type: cell-based
Sequence of rKCa2.2 (P70604 whole entry): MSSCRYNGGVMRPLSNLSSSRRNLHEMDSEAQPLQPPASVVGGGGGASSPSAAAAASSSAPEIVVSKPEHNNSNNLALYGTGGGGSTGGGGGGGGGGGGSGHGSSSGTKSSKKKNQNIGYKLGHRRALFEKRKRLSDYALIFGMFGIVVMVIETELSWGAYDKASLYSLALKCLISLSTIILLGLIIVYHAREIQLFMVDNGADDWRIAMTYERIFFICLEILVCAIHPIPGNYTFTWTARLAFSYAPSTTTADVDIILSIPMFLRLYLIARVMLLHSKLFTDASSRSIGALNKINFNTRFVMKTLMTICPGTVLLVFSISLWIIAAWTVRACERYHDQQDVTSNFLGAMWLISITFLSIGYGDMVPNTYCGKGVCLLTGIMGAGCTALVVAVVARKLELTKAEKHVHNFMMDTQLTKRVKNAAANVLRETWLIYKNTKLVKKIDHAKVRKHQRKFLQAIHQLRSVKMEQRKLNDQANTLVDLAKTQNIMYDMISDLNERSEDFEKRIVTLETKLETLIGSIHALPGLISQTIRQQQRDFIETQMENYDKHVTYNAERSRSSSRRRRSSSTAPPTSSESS

hKv1.5 = hKv1.5 (Homo sapiens, UniProt P22460); assay: Selectivity patch-clamp, Kv1.5 currents; assay type: cell-based
Sequence of hKv1.5 (P22460 whole entry): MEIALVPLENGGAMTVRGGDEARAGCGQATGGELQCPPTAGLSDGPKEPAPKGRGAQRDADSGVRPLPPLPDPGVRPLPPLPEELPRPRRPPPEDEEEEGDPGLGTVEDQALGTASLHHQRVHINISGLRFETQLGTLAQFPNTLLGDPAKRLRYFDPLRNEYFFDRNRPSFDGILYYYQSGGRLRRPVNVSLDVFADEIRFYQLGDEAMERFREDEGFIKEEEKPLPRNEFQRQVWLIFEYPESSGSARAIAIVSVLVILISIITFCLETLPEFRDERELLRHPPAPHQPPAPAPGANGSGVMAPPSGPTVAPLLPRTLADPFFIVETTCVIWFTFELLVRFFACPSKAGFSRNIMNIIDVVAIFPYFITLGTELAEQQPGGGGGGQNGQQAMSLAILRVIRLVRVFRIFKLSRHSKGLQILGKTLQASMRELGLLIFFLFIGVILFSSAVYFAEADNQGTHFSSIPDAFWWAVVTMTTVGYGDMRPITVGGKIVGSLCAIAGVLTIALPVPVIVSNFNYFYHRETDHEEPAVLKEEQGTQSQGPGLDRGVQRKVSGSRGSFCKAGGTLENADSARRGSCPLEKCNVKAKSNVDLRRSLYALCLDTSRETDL

Rat Kv3.2 = Rat Kv3.2 (Rattus norvegicus, UniProt P22462); assay: Selectivity patch-clamp, Kv3.2 currents; assay type: cell-based
Sequence of Rat Kv3.2 (P22462 whole entry): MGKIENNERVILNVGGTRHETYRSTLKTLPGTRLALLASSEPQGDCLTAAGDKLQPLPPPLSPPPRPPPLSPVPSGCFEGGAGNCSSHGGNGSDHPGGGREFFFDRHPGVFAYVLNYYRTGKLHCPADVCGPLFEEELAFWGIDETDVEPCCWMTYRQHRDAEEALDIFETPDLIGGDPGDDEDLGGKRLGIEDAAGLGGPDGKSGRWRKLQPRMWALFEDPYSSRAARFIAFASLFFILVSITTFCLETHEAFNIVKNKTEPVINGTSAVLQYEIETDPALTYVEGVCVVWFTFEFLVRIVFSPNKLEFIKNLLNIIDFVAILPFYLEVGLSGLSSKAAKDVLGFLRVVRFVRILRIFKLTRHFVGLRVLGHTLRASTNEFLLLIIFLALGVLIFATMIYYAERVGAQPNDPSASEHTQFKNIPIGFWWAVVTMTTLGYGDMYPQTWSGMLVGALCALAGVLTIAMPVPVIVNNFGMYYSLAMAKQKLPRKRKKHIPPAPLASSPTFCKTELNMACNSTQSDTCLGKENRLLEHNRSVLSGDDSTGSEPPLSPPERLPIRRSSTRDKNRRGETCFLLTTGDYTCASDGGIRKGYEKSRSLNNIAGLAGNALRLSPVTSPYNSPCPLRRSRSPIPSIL

rKv4.2 = target: T2, rKv4.2 (Rattus norvegicus, UniProt Q63881); assay: Selectivity patch-clamp, Kv4.2 currents; assay type: cell-based
T2 sequence (Q63881 1-630): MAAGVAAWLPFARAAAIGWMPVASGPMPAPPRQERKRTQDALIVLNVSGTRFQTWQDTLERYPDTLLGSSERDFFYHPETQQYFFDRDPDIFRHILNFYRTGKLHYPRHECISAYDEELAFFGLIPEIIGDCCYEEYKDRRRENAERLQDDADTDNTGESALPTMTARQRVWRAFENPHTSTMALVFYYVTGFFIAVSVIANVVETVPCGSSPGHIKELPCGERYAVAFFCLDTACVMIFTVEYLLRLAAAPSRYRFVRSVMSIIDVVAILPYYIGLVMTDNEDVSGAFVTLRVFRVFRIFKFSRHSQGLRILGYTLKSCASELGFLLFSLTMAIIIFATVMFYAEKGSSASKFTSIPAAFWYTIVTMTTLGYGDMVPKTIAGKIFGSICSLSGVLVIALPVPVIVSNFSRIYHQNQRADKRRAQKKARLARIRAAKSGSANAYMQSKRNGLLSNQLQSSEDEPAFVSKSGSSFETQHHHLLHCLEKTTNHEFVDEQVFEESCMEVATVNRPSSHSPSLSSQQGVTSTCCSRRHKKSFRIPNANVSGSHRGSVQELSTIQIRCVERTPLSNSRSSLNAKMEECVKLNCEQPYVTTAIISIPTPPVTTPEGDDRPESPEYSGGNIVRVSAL

Nav1.2 = Nav1.2 (Mus musculus, UniProt B1AWN6); assay: Selectivity patch-clamp, Nav1.2 currents from N1E-115 cells; assay type: cell-based
hKCa3.1 = hKCa3.1 (Homo sapiens, UniProt O15554); assay: Whole-cell patch-clamp of KCa3.1 currents; assay type: cell-based
Sequence of hKCa3.1 (O15554 whole entry): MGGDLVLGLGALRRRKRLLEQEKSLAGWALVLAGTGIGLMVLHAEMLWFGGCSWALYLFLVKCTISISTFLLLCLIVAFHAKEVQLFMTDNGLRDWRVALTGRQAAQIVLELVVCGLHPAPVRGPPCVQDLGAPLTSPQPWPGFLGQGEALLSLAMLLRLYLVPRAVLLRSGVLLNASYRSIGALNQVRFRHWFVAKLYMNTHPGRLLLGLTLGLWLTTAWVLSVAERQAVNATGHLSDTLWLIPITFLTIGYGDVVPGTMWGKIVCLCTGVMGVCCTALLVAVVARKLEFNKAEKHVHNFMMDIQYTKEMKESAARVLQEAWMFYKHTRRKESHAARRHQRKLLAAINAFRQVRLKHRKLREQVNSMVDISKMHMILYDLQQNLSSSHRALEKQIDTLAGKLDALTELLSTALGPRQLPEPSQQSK

hKCa1.1 = hKCa1.1 (Homo sapiens, UniProt Q12791); assay: Selectivity patch-clamp, KCa1.1 currents; assay type: cell-based; details: 1 μM free Ca2+
Sequence of hKCa1.1 (Q12791 whole entry): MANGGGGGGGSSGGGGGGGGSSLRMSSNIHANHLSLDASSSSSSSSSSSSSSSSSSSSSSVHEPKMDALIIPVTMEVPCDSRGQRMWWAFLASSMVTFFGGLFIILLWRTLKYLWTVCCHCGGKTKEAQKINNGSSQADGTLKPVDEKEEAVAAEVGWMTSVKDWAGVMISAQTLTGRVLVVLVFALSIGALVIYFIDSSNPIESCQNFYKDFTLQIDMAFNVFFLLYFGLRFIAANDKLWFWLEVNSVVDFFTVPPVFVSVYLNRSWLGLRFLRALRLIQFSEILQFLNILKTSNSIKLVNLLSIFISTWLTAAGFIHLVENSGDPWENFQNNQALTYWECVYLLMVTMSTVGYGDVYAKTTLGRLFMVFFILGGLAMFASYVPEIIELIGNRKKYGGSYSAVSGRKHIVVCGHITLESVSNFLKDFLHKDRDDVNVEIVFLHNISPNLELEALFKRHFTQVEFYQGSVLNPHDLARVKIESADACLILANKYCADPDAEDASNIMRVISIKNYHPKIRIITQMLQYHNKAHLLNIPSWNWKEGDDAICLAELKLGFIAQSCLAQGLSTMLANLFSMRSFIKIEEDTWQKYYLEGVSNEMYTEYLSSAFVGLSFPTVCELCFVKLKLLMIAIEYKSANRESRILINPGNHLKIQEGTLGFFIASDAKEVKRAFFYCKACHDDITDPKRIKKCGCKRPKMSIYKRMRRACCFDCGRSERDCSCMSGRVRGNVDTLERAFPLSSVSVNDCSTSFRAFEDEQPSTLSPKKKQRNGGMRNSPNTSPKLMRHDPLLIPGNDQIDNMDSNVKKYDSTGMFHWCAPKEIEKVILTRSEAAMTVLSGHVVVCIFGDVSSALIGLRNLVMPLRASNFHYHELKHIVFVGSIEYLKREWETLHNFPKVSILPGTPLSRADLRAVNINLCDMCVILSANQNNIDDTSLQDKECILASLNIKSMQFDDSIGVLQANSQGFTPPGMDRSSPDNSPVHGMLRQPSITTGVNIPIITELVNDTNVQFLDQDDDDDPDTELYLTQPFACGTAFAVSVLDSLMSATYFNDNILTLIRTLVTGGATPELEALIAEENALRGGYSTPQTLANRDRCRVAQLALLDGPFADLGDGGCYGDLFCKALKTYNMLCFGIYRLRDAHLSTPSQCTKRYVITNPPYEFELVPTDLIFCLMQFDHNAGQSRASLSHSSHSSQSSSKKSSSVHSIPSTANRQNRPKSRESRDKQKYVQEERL

mKv1.1 = mKv1.1 (Mus musculus, UniProt P16388); assay: Selectivity patch-clamp, Kv1.1 currents; assay type: cell-based
Sequence of mKv1.1 (P16388 whole entry): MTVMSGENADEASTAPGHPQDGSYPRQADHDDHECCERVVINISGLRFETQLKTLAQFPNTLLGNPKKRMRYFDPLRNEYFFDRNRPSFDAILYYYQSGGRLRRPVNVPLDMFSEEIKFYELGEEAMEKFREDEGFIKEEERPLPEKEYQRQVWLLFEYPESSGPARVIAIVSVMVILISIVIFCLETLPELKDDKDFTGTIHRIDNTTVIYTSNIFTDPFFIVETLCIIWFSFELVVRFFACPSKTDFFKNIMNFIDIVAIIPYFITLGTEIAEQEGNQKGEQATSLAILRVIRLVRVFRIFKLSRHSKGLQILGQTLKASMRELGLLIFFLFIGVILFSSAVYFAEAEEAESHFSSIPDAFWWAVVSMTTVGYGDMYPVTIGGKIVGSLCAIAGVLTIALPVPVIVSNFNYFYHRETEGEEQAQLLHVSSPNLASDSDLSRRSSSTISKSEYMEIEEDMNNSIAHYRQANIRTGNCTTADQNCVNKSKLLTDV

Rat Nav1.5 = Rat Nav1.5 (Rattus norvegicus, UniProt P15389); assay: Selectivity patch-clamp, Nav1.5 currents; assay type: cell-based
hKCa2.3 = hKCa2.3 (Homo sapiens, UniProt Q9UGI6); assay: Whole-cell patch-clamp of KCa2.3 currents; assay type: cell-based
logP = assay type: physicochemical
hNav1.4 = hNav1.4 (Homo sapiens, UniProt P35499); assay: Selectivity patch-clamp, Nav1.4 currents; assay type: cell-based
mice [1] = assay: Maximal electroshock; assay type: in vivo, mouse; details: 100 mg/kg i.p., 15 min, 30 min and 1 hour
mice [2] = assay type: in vivo, mouse; details: 100 mg/kg i.p., 15 min, 30 min and 1 hour
[3] = target: glutamate site of NMDA receptors (Rattus norvegicus, UniProt Q00959); assay: NMDA receptor radioligand binding assay
wt and KCa3.1−/− mice = assay: Telemetric blood pressure in normotensive mice; assay type: in vivo, mouse; details: for MAP over 24 h: mean ± SEM; for lowering of mean arterial pressure (MAP): over 24 h
murine carotid artery = assay: Pressure myography, EDHF-type dilation of carotid artery; parameters: species or system mouse
[4] = system: wt mice infused with Ang-II; assay: Telemetric blood pressure in angiotensin-II-induced hypertension; assay type: in vivo, mouse; details: 30 mg/kg i.p.
Kv11.1 (HERG) = Kv11.1 (HERG) (Homo sapiens, UniProt Q12809)
mKv1.3 = mKv1.3 (Mus musculus, UniProt P16390); assay: Selectivity patch-clamp, Kv1.3 currents; assay type: cell-based
Pharmacokinetics in rats = assay type: in vivo; details: rat; for peak total plasma concentration: 2 h
Cav1.2 = Cav1.2 (Oryctolagus cuniculus, UniProt P15381); assay: Selectivity patch-clamp, Cav1.2 currents; assay type: cell-based
Jurkat E61 and MEL cells = assay: Cytotoxicity assay; assay type: cell-based; details: concentrations up to 100 μM; 48 h
[5] = Plasma protein binding by ultrafiltration; assay type: in vitro ADME, rat
[6] = male, Sprague-Dawley, plasma, iv, 10 mg/kg

EC50 (hKCa2.1): 21 µM
IC50 (mKv3.1): 95 ± 5 µM
EC50 (K2P2.1 (TREK-1)): 110 ± 35 µM
EC50 (rKCa2.2): 12.8 µM
IC50 (hKv1.5): 95 ± 5 µM
IC50 (Rat Kv3.2): 100 ± 10 µM
IC50 (rKv4.2): 130 ± 10 µM
IC50 (Nav1.2): 15 ± 3 µM
EC50 (hKCa3.1): 1.9 µM
increase of KCa3.1 currents (hKCa3.1; 250 nM [Ca2+]i): ~30 fold
increase of KCa3.1 currents (hKCa3.1; 1 μM [Ca2+]i): roughly 3 fold
effect on KCa1.1 current at 100 μM (hKCa1.1; 100 μM): Doubles current at 100 μM
IC50 (mKv1.1): 92 ± 7 µM
Compound: Nc1nc2ccc(OC(F)(F)F)cc2s1 [Riluzole, 2-amino-6-[trifluoromethoxy]benzothiazole, reference compound]

EC50 (hKCa2.1): 0.43 µM
Kv3.1 block at 10 μM (mKv3.1; 10 μM): 35 ± 3% block at 10 μM
K2P2.1 (TREK-1) effect at 10 μM (K2P2.1 (TREK-1); 10 μM): No effect at 10 μM
EC50 (rKCa2.2): 1.9 µM
Kv3.2 block at 10 μM (Rat Kv3.2; 10 μM): 12 ± 5% block at 10 μM
Kv4.2 block at 10 μM (rKv4.2; 10 μM): 10 ± 3% block at 10 μM
IC50 (Nav1.2): 14 ± 2 µM
EC50 (hKCa3.1): 0.115 µM
EC50 (hKCa2.3; read-out: EC50 KCa2.3 activation, 250 nM [Ca2+]i): 1.2 µM
logP (logP): 3.1
effect on KCa1.1 current at 10 μM (hKCa1.1; 10 μM): No effect at 10 μM
Nav1.4 block at 10 μM (hNav1.4; 10 μM): No effect at 10 μM
Kv1.1 block at 10 μM (mKv1.1; 10 μM): 12 ± 3%block at 10 μM
Compound: Nc1nc2ccc3cc4ccccc4cc3c2s1 [SKA-20, Anthra[2,1-d]thiazol-2-ylamine]
Nav1.5 block at 10 μM (Rat Nav1.5): 30 ± 5% block at 10 μM

Compound: Nc1nc2cc3c(cc2s1)CCC3 [SKA-29, 6,7-Dihydro-5H-indeno[5,6-d]thiazol-2-amine]
protection from seizures, maximal electroshock (MES) model (mice [1]): effectively protect mice from seizures
protection from seizures, 6 Hz minimal electroshock model (mice [2]): effectively protect mice from seizures

effect in NMDA receptor binding assay at 25 μM [3]: no effect
K2P2.1 (TREK-1) effect at 25 μM (K2P2.1 (TREK-1); 25 μM): No effect at 25 μM
Kv1.5 block at 25 μM (hKv1.5; 25 μM): 20 ± 5% block at 25 μM
Kv1.3 block at 25 μM (mKv1.3): 20 ± 5% block at 25 μM
Kv4.2 block at 25 μM (rKv4.2; 25 μM): No effect at 25 μM
Tmax (Pharmacokinetics in rats; male, Sprague-Dawley, plasma, ip, 30 mg/kg): 2 h
concentration at 1 h (Pharmacokinetics in rats; [6]): 5000 nM
concentration at 24 h (Pharmacokinetics in rats; [6]): 2500 nM
concentration at 48 h (Pharmacokinetics in rats; [6]): 2000 nM
concentration at 80 h (Pharmacokinetics in rats; [6]): 2000 nM
peak total plasma concentration (Pharmacokinetics in rats; i.p. 10 mg/kg): 25 µM
plasma concentrations higher than tissue concentrations (Pharmacokinetics in rats; i.p. 10 mg/kg, 2 h (plasma peak)): 4–8 fold
peak total plasma concentration (Pharmacokinetics in rats; i.p. 30 mg/kg): 37 µM
total plasma concentration, peak at 3 min (Pharmacokinetics in rats; i.v. 10 mg/kg, 3 min): 30 µM
logP (logP): 2.2
effect on KCa1.1 current at 25 μM (hKCa1.1; 25 μM): No effect at 25 μM
Nav1.4 block at 25 μM (hNav1.4; 25 μM): 20 ± 5 % block at 25 μM
unbound (free) fraction ([5]; rat plasma spiked with 10 μM): 61 ± 1.7% and 61%
fraction unbound at 15 min, 10 μM ([5]; rat, plasma): 0.61
Kv1.1 block at 25 μM (mKv1.1; 25 μM): No effect at 25 μM
Compound: Nc1nc2c(ccc3ccccc32)s1 [SKA-31, naphtho[1,2-d]thiazol-2-ylamine]
MAP over 24 h (wt and KCa3.1−/− mice; KCa3.1−/− mice, 10 mg/kg i.p.): 104.3 ± 1.5 mmHg
MAP over 24 h (wt and KCa3.1−/− mice; KCa3.1−/− mice, 30 mg/kg i.p.): 102.9 ± 0.6 mmHg
effect on mean arterial pressure (MAP) (wt and KCa3.1−/− mice; KCa3.1−/− mice, 10 and 30 mg/kg i.p.): no blood pressure lowering effects
effect on heart rate (wt and KCa3.1−/− mice; any of the groups): did not alter heart rate
effect on mean arterial pressure (MAP) (wt and KCa3.1−/− mice; normotensive wt mice, 1 mg/kg i.p.): ineffective
lowering of mean arterial pressure (MAP) (wt and KCa3.1−/− mice; normotensive wt mice, 10 mg/kg i.p.): 4 mmHg
lowering of mean arterial pressure (MAP) (wt and KCa3.1−/− mice; normotensive wt mice, 30 mg/kg i.p.): 6 mmHg
MAP over 24 h (wt and KCa3.1−/− mice; wt mice, 1 mg/kg i.p.): 99.0 ± 2.0 mmHg
MAP over 24 h (wt and KCa3.1−/− mice; wt mice, 10 mg/kg i.p.): 95.8 ± 1.3 mmHg
MAP over 24 h (wt and KCa3.1−/− mice; wt mice, 30 mg/kg i.p.): 94.1 ± 1.3 mmHg
effect on carotid artery diameter in the absence of acetylcholine (murine carotid artery; 0.01 to 1 μM): did not dilate or contract
potentiation of residual KCa2.3-mediated EDHF-type response (murine carotid artery; carotid arteries of KCa3.1−/− mice, 0.1 to 1 μM): did not potentiate
increase in EDHF-type dilation at 1 μM (murine carotid artery; wt carotid artery, 100 nM acetylcholine, 1 μM): two- to three-fold increase in dilation
protection from seizures, maximal electroshock (MES) model (mice [1]): effectively protect mice from seizures
protection from seizures, 6 Hz minimal electroshock model (mice [2]): effectively protect mice from seizures
MAP ([4]; Ang-II hypertensive wt mice, mean ± SEM): 120 ± 4 mmHg
lowering of mean arterial pressure (MAP) ([4]; angiotensin-II-induced hypertension, wt mice): 12 mmHg
Kv11.1 (HERG) block at 25 μM (Kv11.1 (HERG)): No effect at 25 μM
Cav1.2 block at 25 μM (Cav1.2): No effect at 25 μM
cytotoxicity (Jurkat E61 and MEL cells): not cytotoxic

Compound: apamin (CNCKAPETALCARRCQQH-NH2; disulfide 1-11, 3-15; ends not checked; UniProt P01500 28-45, looked up)
IC50 (hKCa2.3; read-out: IC50 blockade of hKCa2.3 currents, currents activated with 10 μM SKA-31, 250 nM free Ca2+): ~0.001 µM
